This is an account of results in patent US20220323406A1, “METHODS AND COMPOSITIONS FOR DIFFERENTIATING STEM CELLS” (Massachusetts Institute of Technology, priority 2019, published 2022).

Assay [1] has as its system ENR+CD organoids. Description: Primary screen: ATP (CellTiter-Glo 3D, CTG) cell number/viability, 2.5-D 384-well ENR+CD organoids.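 For all read-outs here: compounds given at plating and again on day 3 over a 6-day differentiation from ENR+CV stem-cell-enriched precursors, ATP measured on day 6, plate median as control.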 Conditions: primary screen; for Z.CTG: standard z score; for Dose.FC.CTG: FC vs plate median. A general note: In ATP-based viability assays light output follows the ATP content of the culture.
The test system of assay [2] is ENR+CD organoids (ISC to Paneth cell differentiation). Description: Primary screen: CCh-stimulated lysozyme secretion LYZ.S, 2.5-D 384-well ENR+CD organoid differentiation. In kind it is cell-based, mouse. The conditions noted are these: primary screen, FC vs plate median. From the text:
(§1) High-throughput screening.

The test system is the same in assay [3]. Description: Primary screen: basal (non-stimulated) lysozyme secretion LYZ.NS, 2.5-D 384-well ENR+CD organoid differentiation. The assay is classed as cell-based, mouse. The conditions noted are these: primary screen; for Z.LYZ.NS: standard z score; for Dose.FC.LYZ.NS: FC vs plate median.
Excerpt: as §1

As for `O=C(NOCC1CC1)c1ccc(F)c(F)c1Nc1ccc(I)cc1Cl` [PD184352 (CI-1040)], the Z.CTG is 0.874 in assay [1] (dose 0.08 uM), 0.624 in assay [1] (dose 0.40 uM), −0.506 in assay [1] (dose 2.00 uM) and −1.901 in assay [1] (dose 10.00 uM). The Dose.FC.CTG in assay [1] (dose 0.08 uM) is given as 0.366 log2 fold change; in assay [1] (dose 0.40 uM) it was 0.261 log2 fold change; in assay [1] (dose 2.00 uM), −0.212 log2 fold change; in assay [1] (dose 10.00 uM), −0.796 log2 fold change. The Dose.FC.LYZ.S in assay [2] (dose 0.08 uM) is listed as −0.019 log2 fold change; in assay [2] (dose 0.40 uM) it was −0.047 log2 fold change; in assay [2] (dose 2.00 uM) it was −0.178 log2 fold change; in assay [2] (dose 10.00 uM), −0.239 log2 fold change. For the same compound, the Z.LYZ.NS in assay [3] (dose 0.08 uM) is reported as −0.162; in assay [3] (dose 0.40 uM), −0.458; in assay [3] (dose 2.00 uM), −1.176; in assay [3] (dose 10.00 uM) it was −1.011. Besides, the Dose.FC.LYZ.NS is given as −0.019 log2 fold change in assay [3] (dose 0.08 uM), −0.053 log2 fold change in assay [3] (dose 0.40 uM), −0.135 log2 fold change in assay [3] (dose 2.00 uM) and −0.116 log2 fold change in assay [3] (dose 10.00 uM).
In the case of `O=C(NOC[C@H](O)CO)c1ccc(F)c(F)c1Nc1ccc(I)cc1F` [PD0325901], the Dose.FC.CTG in assay [1] (dose 0.08 uM) is recorded as −0.502 log2 fold change; in assay [1] (dose 0.40 uM), −1.155 log2 fold change; in assay [1] (dose 2.00 uM) it was −0.867 log2 fold change; in assay [1] (dose 10.00 uM), −0.963 log2 fold change. The Dose.FC.LYZ.S is listed as −0.212 log2 fold change in assay [2] (dose 0.08 uM), −0.219 log2 fold change in assay [2] (dose 0.40 uM), −0.227 log2 fold change in assay [2] (dose 2.00 uM) and −0.269 log2 fold change in assay [2] (dose 10.00 uM). Moreover, the Z.LYZ.NS was −1.046 in assay [3] (dose 0.08 uM), −1.064 in assay [3] (dose 0.40 uM), −1.215 in assay [3] (dose 2.00 uM) and −1.625 in assay [3] (dose 10.00 uM). Also, the Dose.FC.LYZ.NS is given as −0.120 log2 fold change in assay [3] (dose 0.08 uM), −0.122 log2 fold change in assay [3] (dose 0.40 uM), −0.139 log2 fold change in assay [3] (dose 2.00 uM) and −0.187 log2 fold change in assay [3] (dose 10.00 uM).
Turning to `O=C(Nc1cccnc1)N1CCC(Cc2cccc(Oc3ccc(C(F)(F)F)cn3)c2)CC1` [PF-3845], the Z.CTG in assay [1] (dose 0.08 uM) is −0.112; in assay [1] (dose 0.40 uM), 0.125; in assay [1] (dose 2.00 uM) it was −0.246; in assay [1] (dose 10.00 uM) it was −0.684. Further, the Dose.FC.CTG is reported as −0.047 log2 fold change in assay [1] (dose 0.08 uM), 0.052 log2 fold change in assay [1] (dose 0.40 uM), −0.103 log2 fold change in assay [1] (dose 2.00 uM) and −0.286 log2 fold change in assay [1] (dose 10.00 uM). The Dose.FC.LYZ.S in assay [2] (dose 0.08 uM) is recorded as 0.027 log2 fold change; in assay [2] (dose 0.40 uM), −0.061 log2 fold change; in assay [2] (dose 2.00 uM), −0.032 log2 fold change; in assay [2] (dose 10.00 uM), −0.195 log2 fold change. For the same compound, the Z.LYZ.NS is listed as 0.532 in assay [3] (dose 0.08 uM), −0.668 in assay [3] (dose 0.40 uM), −0.131 in assay [3] (dose 2.00 uM) and −1.137 in assay [3] (dose 10.00 uM). Moreover, the Dose.FC.LYZ.NS in assay [3] (dose 0.08 uM) is 0.061 log2 fold change; in assay [3] (dose 0.40 uM) it was −0.077 log2 fold change; in assay [3] (dose 2.00 uM) it was −0.015 log2 fold change; in assay [3] (dose 10.00 uM), −0.131 log2 fold change.
Consider `CN(c1ncccc1CNc1nc(Nc2ccc3c(c2)CC(=O)N3)ncc1C(F)(F)F)S(C)(=O)=O` [PF-562271], for which the Z.CTG is −0.273 in assay [1] (dose 0.08 uM), −0.518 in assay [1] (dose 0.40 uM), −1.311 in assay [1] (dose 2.00 uM) and −2.266 in assay [1] (dose 10.00 uM). The Dose.FC.CTG in assay [1] (dose 0.08 uM) is recorded as −0.114 log2 fold change; in assay [1] (dose 0.40 uM), −0.217 log2 fold change; in assay [1] (dose 2.00 uM), −0.549 log2 fold change; in assay [1] (dose 10.00 uM), −0.949 log2 fold change. The Dose.FC.LYZ.S is recorded as −0.088 log2 fold change in assay [2] (dose 0.08 uM), −0.214 log2 fold change in assay [2] (dose 0.40 uM), −0.332 log2 fold change in assay [2] (dose 2.00 uM) and −0.414 log2 fold change in assay [2] (dose 10.00 uM). The Z.LYZ.NS in assay [3] (dose 0.08 uM) was −0.589; in assay [3] (dose 0.40 uM) it was −1.325; in assay [3] (dose 2.00 uM), −2.034; in assay [3] (dose 10.00 uM) it was −2.184. The Dose.FC.LYZ.NS is recorded as −0.068 log2 fold change in assay [3] (dose 0.08 uM), −0.152 log2 fold change in assay [3] (dose 0.40 uM), −0.234 log2 fold change in assay [3] (dose 2.00 uM) and −0.251 log2 fold change in assay [3] (dose 10.00 uM).
On to `CS(=O)(=O)c1cccc(CNc2nc(Nc3ccc4c(c3)CCC(=O)N4)ncc2C(F)(F)F)c1` [PF-573228], for which the Z.CTG in assay [1] (dose 0.08 uM) is 0.183; in assay [1] (dose 0.40 uM), −0.129; in assay [1] (dose 2.00 uM), −1.037; in assay [1] (dose 10.00 uM), −1.188. Moreover, the Dose.FC.CTG in assay [1] (dose 0.08 uM) is given as 0.077 log2 fold change; in assay [1] (dose 0.40 uM) it was −0.054 log2 fold change; in assay [1] (dose 2.00 uM), −0.434 log2 fold change; in assay [1] (dose 10.00 uM) it was −0.497 log2 fold change. Further, the Dose.FC.LYZ.S is on record as 0.114 log2 fold change in assay [2] (dose 0.08 uM), 0.002 log2 fold change in assay [2] (dose 0.40 uM), −0.174 log2 fold change in assay [2] (dose 2.00 uM) and −0.305 log2 fold change in assay [2] (dose 10.00 uM). For the same compound, the Z.LYZ.NS in assay [3] (dose 0.08 uM) is given as 0.089; in assay [3] (dose 0.40 uM), −0.401; in assay [3] (dose 2.00 uM), −0.502; in assay [3] (dose 10.00 uM) it was −2.180. In addition, the Dose.FC.LYZ.NS is listed as 0.010 log2 fold change in assay [3] (dose 0.08 uM), −0.046 log2 fold change in assay [3] (dose 0.40 uM), −0.058 log2 fold change in assay [3] (dose 2.00 uM) and −0.250 log2 fold change in assay [3] (dose 10.00 uM).
On to `OCCn1cc(-c2cnc3nnn(Cc4ccc5ncccc5c4)c3n2)cn1` [PF-04217903], for which the Z.CTG in assay [1] (dose 0.08 uM) is 0.326; in assay [1] (dose 0.40 uM), 0.616; in assay [1] (dose 2.00 uM), −0.122; in assay [1] (dose 10.00 uM) it was 0.276. Moreover, the Dose.FC.CTG in assay [1] (dose 0.08 uM) is recorded as 0.136 log2 fold change; in assay [1] (dose 0.40 uM) it was 0.258 log2 fold change; in assay [1] (dose 2.00 uM) it was −0.051 log2 fold change; in assay [1] (dose 10.00 uM) it was 0.116 log2 fold change. The Dose.FC.LYZ.S is given as 0.110 log2 fold change in assay [2] (dose 0.08 uM), 0.265 log2 fold change in assay [2] (dose 0.40 uM), 0.049 log2 fold change in assay [2] (dose 2.00 uM) and 0.127 log2 fold change in assay [2] (dose 10.00 uM). Also, the Z.LYZ.NS is 0.742 in assay [3] (dose 0.08 uM), 1.404 in assay [3] (dose 0.40 uM), 1.060 in assay [3] (dose 2.00 uM) and 0.617 in assay [3] (dose 10.00 uM). The Dose.FC.LYZ.NS is on record as 0.085 log2 fold change in assay [3] (dose 0.08 uM), 0.161 log2 fold change in assay [3] (dose 0.40 uM), 0.122 log2 fold change in assay [3] (dose 2.00 uM) and 0.071 log2 fold change in assay [3] (dose 10.00 uM).
Turning to `Cc1cnc(-c2cc(N3CCN(C(=O)CCS(C)(=O)=O)CC3)ncc2Cl)c(C)c1` [PF-5274857], the Z.CTG in assay [1] (dose 0.08 uM) is −0.242; in assay [1] (dose 0.40 uM) it was −0.096; in assay [1] (dose 2.00 uM), 0.131; in assay [1] (dose 10.00 uM) it was −0.183. The Dose.FC.CTG in assay [1] (dose 0.08 uM) was −0.101 log2 fold change; in assay [1] (dose 0.40 uM) it was −0.040 log2 fold change; in assay [1] (dose 2.00 uM), 0.055 log2 fold change; in assay [1] (dose 10.00 uM), −0.076 log2 fold change. For the same compound, the Dose.FC.LYZ.S in assay [2] (dose 0.08 uM) was 0.187 log2 fold change; in assay [2] (dose 0.40 uM), −0.034 log2 fold change; in assay [2] (dose 2.00 uM), 0.042 log2 fold change; in assay [2] (dose 10.00 uM), 0.076 log2 fold change. The Z.LYZ.NS in assay [3] (dose 0.08 uM) is given as 0.683; in assay [3] (dose 0.40 uM), −0.256; in assay [3] (dose 2.00 uM), 0.094; in assay [3] (dose 10.00 uM), 0.642. For the same compound, the Dose.FC.LYZ.NS was 0.078 log2 fold change in assay [3] (dose 0.08 uM), −0.029 log2 fold change in assay [3] (dose 0.40 uM), 0.011 log2 fold change in assay [3] (dose 2.00 uM) and 0.074 log2 fold change in assay [3] (dose 10.00 uM).
Turning to `COc1ccccc1S(=O)(=O)Nc1ccc2c(c1)CN(C)C(=O)N2` [PFI-1 (PF-6405761)], the Z.CTG in assay [1] (dose 0.08 uM) is 0.340; in assay [1] (dose 0.40 uM), 0.931; in assay [1] (dose 2.00 uM) it was 0.770; in assay [1] (dose 10.00 uM) it was −0.929. The Dose.FC.CTG is reported as 0.142 log2 fold change in assay [1] (dose 0.08 uM), 0.390 log2 fold change in assay [1] (dose 0.40 uM), 0.322 log2 fold change in assay [1] (dose 2.00 uM) and −0.389 log2 fold change in assay [1] (dose 10.00 uM). The Dose.FC.LYZ.S in assay [2] (dose 0.08 uM) is recorded as 0.061 log2 fold change; in assay [2] (dose 0.40 uM) it was 0.104 log2 fold change; in assay [2] (dose 2.00 uM), −0.117 log2 fold change; in assay [2] (dose 10.00 uM) it was −0.194 log2 fold change. For the same compound, the Z.LYZ.NS is recorded as 0.538 in assay [3] (dose 0.08 uM), 0.691 in assay [3] (dose 0.40 uM), −0.852 in assay [3] (dose 2.00 uM) and −0.573 in assay [3] (dose 10.00 uM). Also, the Dose.FC.LYZ.NS in assay [3] (dose 0.08 uM) is on record as 0.062 log2 fold change; in assay [3] (dose 0.40 uM), 0.079 log2 fold change; in assay [3] (dose 2.00 uM), −0.098 log2 fold change; in assay [3] (dose 10.00 uM), −0.066 log2 fold change.
